Source: publication PMC11770985 (Journal of proteome research, 2024)
Ends that are not written are not given here.

Key:
[1] = test system: Kasumi-1 cells
[2] = test system: HEK293T cells
[3] = test system: HUVEC cells
[4] = test system: Huh-7 cells

Substance | mean cytoplasmic abundance [1] | mean cytoplasmic abundance [2] | mean cytoplasmic abundance [3] | change of nuclear accumulation after 24 hours of cell exposure [4] | mean nuclear abundance [4]
KLALKLALKALKAALKLAGAYGRKKRRQRRRAFSVDAETLWR-NH2 [KLAL-TAT-[barcode82]] | 15 millions of molecules/cell | 31 millions of molecules/cell | 0 millions of molecules/cell | – | –
RLALRLALRALRAALRLAGCYGRKKRRQRRR [RLAL-TAT-[barcode108]] | – | – | – | time-dependent increase in nuclear accumulation | 196 millions of molecules/cell
